IC50 data for 39 molecules are collected here from patent publication US10450301B2, “Apoptosis signal-regulating kinase 1 inhibitors and methods of use thereof” (ENANTA PHARMACEUTICALS, INC., priority 2017, dated 2019).

The target in this experiment is ASK1 (Homo sapiens (Human), UniProt Q99683). Nature of the experiment: HTRF KinEASE Assay (TR-FRET, STK3 peptide substrate), inhibition of ASK1. It counts as biochemical. The conditions noted are these: 5 nM ASK1 kinase, 1 μM STK3 peptide substrate, 100 μM ATP, 3 hours; compound 0 to 10 μM. As to the method: Assay HTRF® KinEASE™ Assay
ASK1, sequence (Q99683 whole entry): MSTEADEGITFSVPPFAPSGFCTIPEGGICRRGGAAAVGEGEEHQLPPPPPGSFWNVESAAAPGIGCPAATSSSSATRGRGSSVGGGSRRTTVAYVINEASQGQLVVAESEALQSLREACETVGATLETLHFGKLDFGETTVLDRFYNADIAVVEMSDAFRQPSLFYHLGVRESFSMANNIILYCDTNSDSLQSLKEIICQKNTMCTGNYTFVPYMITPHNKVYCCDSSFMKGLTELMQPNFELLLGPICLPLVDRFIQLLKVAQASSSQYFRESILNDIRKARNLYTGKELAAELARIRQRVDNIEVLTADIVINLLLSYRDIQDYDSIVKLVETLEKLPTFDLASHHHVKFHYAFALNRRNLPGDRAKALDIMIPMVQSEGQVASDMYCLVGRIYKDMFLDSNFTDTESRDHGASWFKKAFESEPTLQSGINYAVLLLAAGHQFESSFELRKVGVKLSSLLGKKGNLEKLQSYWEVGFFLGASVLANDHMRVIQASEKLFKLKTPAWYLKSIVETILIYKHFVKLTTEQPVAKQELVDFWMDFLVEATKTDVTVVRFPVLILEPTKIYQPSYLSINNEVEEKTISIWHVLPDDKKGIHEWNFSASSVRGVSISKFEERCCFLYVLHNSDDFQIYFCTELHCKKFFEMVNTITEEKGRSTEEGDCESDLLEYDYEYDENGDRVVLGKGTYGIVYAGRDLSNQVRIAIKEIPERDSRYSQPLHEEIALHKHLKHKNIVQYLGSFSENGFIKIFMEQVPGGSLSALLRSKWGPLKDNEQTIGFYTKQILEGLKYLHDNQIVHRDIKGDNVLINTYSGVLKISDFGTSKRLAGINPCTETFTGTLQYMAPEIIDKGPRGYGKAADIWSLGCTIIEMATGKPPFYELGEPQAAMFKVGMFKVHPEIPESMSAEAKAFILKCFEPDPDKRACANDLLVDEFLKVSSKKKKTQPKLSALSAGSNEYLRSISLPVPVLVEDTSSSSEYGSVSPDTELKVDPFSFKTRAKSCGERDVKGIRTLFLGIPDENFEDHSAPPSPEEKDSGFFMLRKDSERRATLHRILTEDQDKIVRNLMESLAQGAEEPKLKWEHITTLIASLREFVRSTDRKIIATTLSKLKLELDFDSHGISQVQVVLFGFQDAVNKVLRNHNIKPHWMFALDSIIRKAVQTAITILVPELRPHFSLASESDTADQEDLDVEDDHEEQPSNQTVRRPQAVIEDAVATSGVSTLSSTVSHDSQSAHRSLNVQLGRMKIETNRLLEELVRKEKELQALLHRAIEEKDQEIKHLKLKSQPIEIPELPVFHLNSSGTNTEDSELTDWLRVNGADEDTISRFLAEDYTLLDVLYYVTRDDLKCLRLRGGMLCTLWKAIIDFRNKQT
ASK1 was purchased from Thermofisher (Catalogue # PV4011), ATP was purchased from Sigma (Catalogue # A7699), HI-TRF® KinEASE™ Assay System was obtained from Cisbio (Bedford, Mass.). […] HTRF® KinEASE™-STK is a generic method for measuring serine/threonine kinase activities using a time-resolved fluorescence resonance energy transfer (TR-FRET) immunoassay. […] 100 Um ATP is added to start kinase reaction and incubated for 3 hours. The STK3-antibody labeled with Eu^3+-Cryptate and 125 Nm streptavidin-XL665 are mixed in a single addition with stop reagents provided by the Cisbio kit used to stop the kinase reaction. […] The resulting TR-FRET is proportional to the phosphorylation level. Staurosporine was used as the positive control. IC50 was determined by Xlfit 5.3.
By using above method, the inhibition of ASK1 was evaluated for the compounds of Formula (I).

pIC50: −log10 of the molar value. Bounds are passed on as bounds.

The pIC50 is the negative decadic logarithm of the IC50, by convention in mol/L. A high value points to a small IC50. As for `C[C@H](CO)n1nnnc1-c1cccc(NC(=O)c2cc3c(cn2)CCN(C(=O)C2CCC2)C3)n1` [Example 124], the pIC50 was 8.00 to 9.00.

As for `CC(C)COC(=O)N1CCc2cnc(C(=O)Nc3cccc(-c4nnnn4[C@H](C)CO)n3)cc2C1` [Example 127], the pIC50 was 8.00 to 9.00.

Molecule `CCOC(=O)N1CCc2cc(F)c(C(=O)Nc3cccc(-c4nncn4C(C)C)n3)cc2C1` [Example 26] had a pIC50 of 8.00 to 9.00.

`CC(C)n1cnnc1-c1cccc(NC(=O)c2ccc3c(c2)CNC3)n1` [Example 9, N-(6-(4-isopropyl-4H-1,2,4-triazol-3-yl)pyridin-2-yl)isoindoline-5-carboxamide] showed a pIC50 of less than 6.00.

For the molecule `C[C@H](CO)n1nnnc1-c1cccc(NC(=O)c2cc3c(cn2)CCN(C(=O)OC2CC4CCC(C2)N4C)C3)n1` (stereo partly drawn) [Example 190, 8-methyl-8-azabicyclo[3.2.1]octan-3-yl 7-((6-(1-((R)-1-hydroxypropan-2-yl)-1H-tetrazol-5-yl)pyridin-2-yl)carbamoyl)-3,4-dihydro-2,6-naphthyridine-2(1H)-carboxylate], the pIC50 is 8.00 to 9.00.

`CC(C)n1nnnc1-c1cccc(NC(=O)c2cc3c(cc2F)CCN(S(=O)(=O)CC(F)F)C3)n1` [Example 103] gave a pIC50 of 7.00 to 8.00.

In turn, `CC(=O)OC[C@@H](C)n1nnnc1-c1cccc(NC(=O)c2cc3c(cc2F)CCNC3)n1` [Example 81] gave a pIC50 of less than 6.00.

For `CC(C)n1nnnc1-c1cccc(NC(=O)c2cc3c(cc2F)CCN(S(=O)(=O)CC2CC(F)(F)C2)C3)n1` [Example 102], the pIC50 is 7.00 to 8.00.

As for `CC(C)n1cnnc1-c1cccc(NC(=O)c2cc3c(cc2F)CCN(S(=O)(=O)C2CCCC2)C3)n1` [Example 21], the pIC50 was 8.00 to 9.00.

The molecule `C[C@H](CO)n1nnnc1-c1cccc(NC(=O)c2cc3c(cn2)CCN(Cc2ccccn2)C3)n1` [Example 171] showed a pIC50 of 8.00 to 9.00.

Molecule `CC(C)CS(=O)(=O)N1CCc2cc(F)c(C(=O)Nc3cccc(-c4nnnn4C(C)C)n3)cc2C1` [Example 86] gave a pIC50 of 7.00 to 8.00.

The molecule `CC(C)n1nnnc1-c1cccc(NC(=O)c2cc3c(cn2)CCN(C(=O)N(C)C2CCCC2)C3)n1` [Example 112] gave a pIC50 of 7.00 to 8.00.

`CC(C)c1nnnn1-c1cccc(NC(=O)c2cc3c(cc2F)CCN(C(=O)OCc2ccccc2)C3)n1` [Example 83, benzyl 6-fluoro-7-((6-(5-isopropyl-1H-tetrazol-1-yl)pyridin-2-yl)carbamoyl)-3,4-dihydroisoquinoline-2(1H)-carboxylate] gave a negative-log IC50 (pIC50) of less than 6.00.

For the molecule `CCCOC(=O)N1CCc2cnc(C(=O)Nc3cccc(-c4nnnn4[C@H](C)CO)n3)cc2C1` [Example 160], the pIC50 was 8.00 to 9.00.

As to `CC(C)n1nnnc1-c1cccc(NC(=O)c2cc3c(cc2F)CCN(C(=O)NC2CCCC2)C3)n1` [Example 56], the pIC50 is 7.00 to 8.00.

`C[C@H](CO)n1nnnc1-c1cccc(NC(=O)c2cc3c(cn2)CCN(C(=O)C2CC2)C3)n1` [Example 155]: the pIC50 is 8.00 to 9.00.

In turn, `CC(C)n1nnnc1-c1cccc(NC(=O)c2cc3c(cc2F)CCN(C(=O)N2C[C@@H](C)O[C@@H](C)C2)C3)n1` [Example 106] gave a negative logarithm of the IC50 (pIC50) of 7.00 to 8.00.

In turn, `CC(C)CS(=O)(=O)N1CCc2cnc(C(=O)Nc3cccc(-c4nnnn4[C@H](C)CO)n3)cc2C1` [Example 161] had a pIC50 of 8.00 to 9.00.

As to `CC(C)n1nnnc1-c1cccc(NC(=O)c2cc3c(cc2F)CCN(C(=O)N2CCN(C)CC2)C3)n1` [Example 91], the pIC50 is 7.00 to 8.00.

As for `C[C@H](CO)n1nnnc1-c1cccc(NC(=O)c2cc3c(cn2)CCN(C(=O)CCC(F)(F)F)C3)n1` [Example 123], the pIC50 is 8.00 to 9.00.

`COc1cc2c(cc1C(=O)Nc1cccc(-c3nncn3C(C)C)n1)C(=O)N(C(C)C)C2` [Example 175, 2-isopropyl-N-(6-(4-isopropyl-4H-1,2,4-triazol-3-yl)pyridin-2-yl)-6-methoxy-3-oxoisoindoline-5-carboxamide] gave a pIC50 of 7.00 to 8.00.

Molecule `CC1c2cc(C(=O)Nc3cccc(-c4nnnn4C(C)C)n3)c(F)cc2CCN1C(=O)N1CCCC1` (stereo not drawn) [Example 69] gave a pIC50 of 7.00 to 8.00.

The molecule `C[C@H](CO)n1nnnc1-c1cccc(NC(=O)c2cc3c(cn2)CCN(C(=O)N2[C@@H]4CCC[C@H]2CC4)C3)n1` [Example 182, 6-((1R,5 S)-8-azabicyclo[3.2.1]octane-8-carbonyl)-N-(6-(1-((R)-1-hydroxypropan-2-yl)-1H-tetrazol-5-yl)pyridin-2-yl)-5,6,7,8-tetrahydro-2,6-naphthyridine-3-carboxamide] gave a pIC50 of 8.00 to 9.00.

The molecule `CC(C)n1nnnc1-c1cccc(NC(=O)c2cc3c(cn2)CCN(C(=O)N2CCCC2)C3)n1` [Example 173] had a pIC50 of 8.00 to 9.00.

In turn, `C[C@H](CO)n1nnnc1-c1cccc(NC(=O)c2cc3c(cn2)CN(C(=O)OCc2ccccc2)C3)n1` [Example 178] had a pIC50 of 8.00 to 9.00.

Molecule `CCN(C)C(=O)N1Cc2ccc(C(=O)Nc3cccc(-c4nncn4C(C)C)n3)cc2C1` [Example 5, N2-ethyl-N5-(6-(4-isopropyl-4H-1,2,4-triazol-3-yl)pyridin-2-yl)-N2-methylisoindoline-2,5-dicarboxamide] gave a pIC50 of 6.00 to 7.00.

`CC(C)N1Cc2ccc(C(=O)Nc3cccc(-c4nnnn4C(C)C)n3)cc2C1=O` [Example 1, 2-isopropyl-N-(6-(1-isopropyl-1H-tetrazol-5-yl)pyridin-2-yl)-3-oxoisoindoline-5-carboxamide] gave a pIC50 of 6.00 to 7.00.

`C[C@H](CO)n1nnnc1-c1cccc(NC(=O)c2cc3c(cn2)CCN(C(=O)OC2CCCC2)C3)n1` [Example 156] showed a negative logarithm of the IC50 (pIC50) of 8.00 to 9.00.

On to `CC(C)n1nnnc1-c1cccc(NC(=O)c2cc3c(cc2F)CCN(S(=O)(=O)CC2CC2)C3)n1` [Example 87], for which the pIC50 is 7.00 to 8.00.

`CC(C)n1cnnc1-c1cccc(NC(=O)c2cc3c(cn2)CN(C(=O)OCc2ccccc2)C3)n1` [Example 179, benzyl 6-((6-(4-isopropyl-4H-1,2,4-triazol-3-yl)pyridin-2-yl)carbamoyl)-1,3-dihydro-2H-pyrrolo[3,4-c]pyridine-2-carboxylate]: the pIC50 was 7.00 to 8.00.

The molecule `CC(C)n1nnnc1-c1cccc(NC(=O)c2cc3c(cn2)CCN(C(=O)N2CCS(=O)(=O)CC2)C3)n1` [Example 137] gave a pIC50 of 8.00 to 9.00.

On to `CC(C)c1nnnn1-c1cccc(NC(=O)c2cc3c(cc2F)CCNC3)n1` [Example 71], for which the pIC50 is less than 6.00.

The molecule `CCN(CC)C(=O)N1CCc2cnc(C(=O)Nc3cccc(-c4nnnn4C(C)C)n3)cc2C1` [Example 113] showed a pIC50 of 8.00 to 9.00.

Molecule `CCOC(=O)N1Cc2ccc(C(=O)Nc3cccc(-c4nnnn4C(C)C)n3)cc2C1` [Example 16] gave a negative logarithm of the IC50 (pIC50) of less than 6.00.

For the molecule `CC(C)n1nnnc1-c1cccc(NC(=O)c2cc3c(cn2)CCN(S(=O)(=O)CC(F)(F)F)C3)n1` [Example 140], the pIC50 was 7.00 to 8.00.

The molecule `CCOC(=O)N1CCc2ccc(C(=O)Nc3cccc(-c4nncn4C(C)C)n3)cc2C1` [Example 36] had a negative logarithm of the IC50 (pIC50) of 7.00 to 8.00.

Take `COCCN1CCc2cnc(C(=O)Nc3cccc(-c4nnnn4[C@H](C)CO)n3)cc2C1` [Example 134]: the pIC50 was 8.00 to 9.00.

Regarding `CCNC(=O)N1CCc2cc(F)c(C(=O)Nc3cccc(-c4nncn4C(C)C)n3)cc2C1` [Example 52], the negative logarithm of the IC50 (pIC50) is 8.00 to 9.00.

In turn, `CC(=O)OC[C@@H](C)n1nnnc1-c1cccc(NC(=O)c2cc3c(cc2F)CCN(S(=O)(=O)CCC(F)(F)F)C3)n1` [Example 84] showed a pIC50 of less than 6.00.
